Results published in patent US5495000A, “Anticoagulant peptides” (Merrell Pharmaceuticals Inc., priority 1995, dated 1996).
pIC50: −log10 of the molar value. *1 amine or outer side, *2 acyl side, *3 side chain or, on linkers, in order; H or OH if unused. Where a SMILES comes first, the peptide text is derived from it. [ ]: non-standard residue; d: D form. Cha = N[C@@H](CC1CCCCC1)C(=O)O; Suc = O=C(CCC(=O)[*:2])[*:1]

system: Fibrin-Clot; experiment: Fibrin-Clot Inhibition; assay type: biochemical

| pIC50 | Structure (SMILES) |
| --- | --- |
| 5.57 | CC[C@H](C)[C@H](NC(=O)[C@H](CC(=O)O)NC(=O)[C@H](CC(=O)O)NC(=O)[C@H](CC(C)C)NC(=O)[C@H](CO)NC(=O)[C@H](Cc1ccccc1)NC(=O)[C@H](CCC(=O)O)NC(=O)[C@H](CCC(=O)O)NC(=O)[C@H](Cc1ccccc1)NC(=O)CCC(=O)O)C(=O)N[C@@H](CCC(=O)O)C(=O)N[C@@H](CCC(N)=O)C(=O)O [Example 4, Suc-Phe-Glu-Glu-Phe-Ser-Leu-Asp-Asp-Ile-Glu-Gln-OH] (Suc-FEEFSLDDIEQ-OH) |
| 5.74 | CC[C@H](C)[C@H](NC(=O)[C@H](CC(=O)O)NC(=O)[C@H](CC(=O)O)NC(=O)[C@H](CC(C)C)NC(=O)[C@H](CO)NC(=O)[C@H](Cc1ccccc1)NC(=O)[C@@H]1CCCN1C(=O)[C@H](CCC(=O)O)NC(=O)[C@H](Cc1ccccc1)NC(=O)CCC(=O)O)C(=O)N[C@@H](CCC(=O)O)C(=O)N[C@@H](CCC(N)=O)C(=O)O [Example 5, Suc-Phe-Glu-Pro-Phe-Ser-Leu-Asp-Asp-Ile-Glu-Gln-OH] (Suc-FEPFSLDDIEQ-OH) |
| 5.64 | CC[C@H](C)[C@H](NC(=O)[C@H](CC(=O)O)NC(=O)[C@H](CC(=O)O)NC(=O)[C@H](CC(C)C)NC(=O)[C@@H]1CCCN1C(=O)[C@@H](Cc1ccccc1)NC(=O)[C@H](CCC(=O)O)NC(=O)[C@H](CCC(=O)O)NC(=O)[C@H](Cc1ccccc1)NC(=O)CCC(=O)O)C(=O)N[C@@H](CCC(=O)O)C(=O)N[C@@H](CCC(N)=O)C(=O)O [Example 6, Suc-Phe-Glu-Glu-phe-Pro-Leu-Asp-Asp-Ile-Glu-Gln-OH] (Suc-FEE[dF]PLDDIEQ-OH) |
| 5.15 | CC(C)C[C@H](NC(=O)[C@H](CO)NC(=O)[C@H](Cc1ccccc1)NC(=O)[C@H](CCC(=O)O)NC(=O)[C@H](CCC(=O)O)NC(=O)[C@H](Cc1ccccc1)NC(=O)CCC(=O)O)C(=O)N[C@@H](CC(=O)O)C(=O)N[C@@H](CC(=O)O)C(=O)N[C@@H](CC1CCCCC1)C(=O)N[C@@H](CCC(=O)O)C(=O)N[C@@H](CCC(N)=O)C(=O)O [Example 7, Suc-Phe-Glu-Glu-Phe-Ser-Leu-Asp-Asp-Cha-Glu-Gln-OH] (Suc-FEEFSLDD[Cha]EQ-OH) |
